Measurements published in patent US9556179B2 (BRISTOL-MYERS SQUIBB COMPANY, priority 2012, dated 2017).
Counter-ions that a name gives are not always drawn.

Key:
CK1ε = CK1ε (Homo sapiens (Human), UniProt P49674); assay: CK1ε kinase assay (Caliper LABCHIP electrophoretic separation of fluoresceinated peptide substrate and product); format: biochemical; conditions: 200 pM enzyme, 50 μM ATP, 22 hours at room temperature
In short: (§1)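 Kinase reactions ran 22 h at room temperature, were stopped with EDTA, and phosphorylated product was separated electrophoretically from unphosphorylated fluoresceinated peptide. Compounds were tested at eleven concentrations from 10 mM DMSO stocks. IC50 by non-linear regression.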

CK1δ = CK1δ (Homo sapiens (Human), UniProt P48730); assay: CK1δ kinase assay (Caliper LABCHIP electrophoretic separation of fluoresceinated peptide substrate and product); format: biochemical; conditions: 200 pM enzyme, 50 μM ATP, 22 hours at room temperature
Chain of CK1δ (P48730 whole entry): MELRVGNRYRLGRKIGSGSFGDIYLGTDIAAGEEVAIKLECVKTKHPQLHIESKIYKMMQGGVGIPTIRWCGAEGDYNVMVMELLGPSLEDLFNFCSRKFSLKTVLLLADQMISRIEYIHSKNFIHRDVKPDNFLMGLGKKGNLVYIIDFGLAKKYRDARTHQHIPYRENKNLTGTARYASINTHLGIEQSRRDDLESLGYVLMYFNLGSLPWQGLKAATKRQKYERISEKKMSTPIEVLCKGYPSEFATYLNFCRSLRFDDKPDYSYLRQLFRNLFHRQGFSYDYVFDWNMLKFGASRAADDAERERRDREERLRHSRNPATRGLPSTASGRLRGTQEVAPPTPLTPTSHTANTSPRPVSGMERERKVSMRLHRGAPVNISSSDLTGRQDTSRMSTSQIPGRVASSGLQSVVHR
In short: as §1

Chain of CK1ε (P49674 whole entry): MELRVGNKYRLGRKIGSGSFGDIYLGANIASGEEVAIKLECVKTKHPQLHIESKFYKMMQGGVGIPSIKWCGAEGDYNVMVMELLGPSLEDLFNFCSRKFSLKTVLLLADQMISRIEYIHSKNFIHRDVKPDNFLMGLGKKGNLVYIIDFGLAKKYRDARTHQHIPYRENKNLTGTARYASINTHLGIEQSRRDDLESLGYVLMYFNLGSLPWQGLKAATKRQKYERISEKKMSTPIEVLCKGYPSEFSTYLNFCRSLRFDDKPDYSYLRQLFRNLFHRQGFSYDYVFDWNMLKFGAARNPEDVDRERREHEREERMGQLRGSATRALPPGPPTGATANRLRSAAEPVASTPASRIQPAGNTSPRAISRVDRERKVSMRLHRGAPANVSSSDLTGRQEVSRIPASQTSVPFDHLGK

Row | IC50 (CK1ε) [nM] | IC50 (CK1δ) [nM] | Compound
1 | 5.24 | 0.492 | O=C(Nc1cn2nc(-c3c(-c4ccc(F)cc4)nc4ccccn34)ccc2n1)c1cc(F)nc(F)c1 [Compound 169, 2,6-difluoro-N-(6-(2-(4-fluorophenyl)imidazo[1,2-a]pyridin-3-yl)imidazo[1,2-b]pyridazin-2-yl)isonicotinamide]
2 | 8.43 | 0.743 | O=C(Nc1cn2nc(-c3c(-c4ccc(F)cc4)nc4ccccn34)ccc2n1)c1ccc(-c2cc[nH]n2)cc1 [Compound 170, N-(6-(2-(4-fluorophenyl)imidazo[1,2-a]pyridin-3-yl)imidazo[1,2-b]pyridazin-2-yl)-4-(1H-pyrazol-3-yl) benzamide]
3 | 7.68 | 1.98 | Cn1ccc(-c2cccc(C(=O)Nc3cn4nc(-c5c(-c6ccc(F)cc6)nc6ccccn56)ccc4n3)c2)n1 [Compound 171, N-(6-(2-(4-fluorophenyl)imidazo[1,2-a]pyridin-3-yl)imidazo[1,2-b]pyridazin-2-yl)-3-(1-methyl-1H-pyrazol-3-yl)benzamide]
4 | 19.3 | 3.93 | O=C(Nc1cn2nc(-c3c(-c4ccc(F)cc4)nc4ccccn34)ccc2n1)c1cnc2ccccc2n1 [Compound 175, N-(6-(2-(4-fluorophenyl)imidazo[1,2-a]pyridin-3-yl)imidazo[1,2-b]pyridazin-2-yl)-2-quinoxalinecarboxamide]
5 | 47.4 | 5.68 | O=C(Nc1cn2nc(-c3c(-c4ccc(F)cc4)nc4ccccn34)ccc2n1)c1csnn1 [Compound 176, N-(6-(2-(4-fluorophenyl)imidazo[1,2-a]pyridin-3-yl)imidazo[1,2-b]pyridazin-2-yl)-1,2,3-thiadiazole-4-carboxamide]
6 | 24.2 | 6.8 | O=C(Nc1cn2nc(-c3c(-c4ccc(F)cc4)nc4ccccn34)ccc2n1)c1cc[nH]n1 [Compound 177, N-(6-(2-(4-fluorophenyl)imidazo[1,2-a]pyridin-3-yl)imidazo[1,2-b]pyridazin-2-yl)-1H-pyrazole-3-carboxamide]
7 | 1520 | 200 | Cc1nnsc1C(=O)Nc1cn2nc(-c3c(-c4ccc(F)cc4)nc4ccccn34)ccc2n1 [Compound 178, N-(6-(2-(4-fluorophenyl)imidazo[1,2-a]pyridin-3-yl)imidazo[1,2-b]pyridazin-2-yl)-4-methyl-1,2,3-thiadiazole-5-carboxamide]
8 | 2.93 | 0.206 | Cc1cc(C(=O)Nc2cn3nc(-c4c(-c5ccc(F)cc5)nc5ccccn45)ccc3n2)on1 [Compound 179, N-(6-(2-(4-fluorophenyl)imidazo[1,2-a]pyridin-3-yl)imidazo[1,2-b]pyridazin-2-yl)-3-methyl-5-isoxazolecarboxamide]
9 | 12.1 | 1.6 | Cn1nccc1C(=O)Nc1cn2nc(-c3c(-c4ccc(F)cc4)nc4ccccn34)ccc2n1 [Compound 180, N-(6-(2-(4-fluorophenyl)imidazo[1,2-a]pyridin-3-yl)imidazo[1,2-b]pyridazin-2-yl)-1-methyl-1H-pyrazole-5-carboxamide]
10 | 10.8 | 4.01 | Cn1ccc(C(=O)Nc2cn3nc(-c4c(-c5ccc(F)cc5)nc5ccccn45)ccc3n2)n1 [Compound 181, N-(6-(2-(4-fluorophenyl)imidazo[1,2-a]pyridin-3-yl)imidazo[1,2-b]pyridazin-2-yl)-1-methyl-1H-pyrazole-3-carboxamide]
11 | 6.13 | 0.53 | O=C(Nc1cn2nc(-c3c(-c4ccc(F)cc4)nc4ccccn34)ccc2n1)c1cncnc1 [Compound 182, N-(6-(2-(4-fluorophenyl)imidazo[1,2-a]pyridin-3-yl)imidazo[1,2-b]pyridazin-2-yl)-5-pyrimidinecarboxamide]
12 | 3.82 | 0.207 | N#Cc1ccc(C(=O)Nc2cn3nc(-c4c(-c5ccc(F)cc5)nc5ccccn45)ccc3n2)cn1 [Compound 183, 6-cyano-N-(6-(2-(4-fluorophenyl)imidazo[1,2-a]pyridin-3-yl)imidazo[1,2-b]pyridazin-2-yl)nicotinamide]
13 | 77.2 | 7.53 | O=C(Nc1cn2nc(-c3c(-c4ccc(F)cc4)nc4ccccn34)ccc2n1)c1nc2ccccc2s1 [Compound 184, N-(6-(2-(4-fluorophenyl)imidazo[1,2-a]pyridin-3-yl)imidazo[1,2-b]pyridazin-2-yl)-1,3-benzothiazole-2-carboxamide]
14 | 11.4 | 10.3 | O=C(Nc1cn2nc(-c3c(-c4ccc(F)cc4)nc4ccccn34)ccc2n1)c1ccncc1 [Compound 186, N-(6-(2-(4-fluorophenyl)imidazo[1,2-a]pyridin-3-yl)imidazo[1,2-b]pyridazin-2-yl)isonicotinamide]
15 | 30.3 | 10.5 | O=C(Nc1cn2nc(-c3c(-c4ccc(F)cc4)nc4ccccn34)ccc2n1)c1csc(-c2ccncc2)n1 [Compound 187, N-(6-(2-(4-fluorophenyl)imidazo[1,2-a]pyridin-3-yl)imidazo[1,2-b]pyridazin-2-yl)-2-(pyridin-4-yl)thiazole-4-carboxamide]
16 | 9.8 | 3.56 | O=C(Nc1cn2nc(-c3c(-c4ccc(F)cc4)nc4ccccn34)ccc2n1)c1csc(-c2cccnc2)n1 [Compound 188, N-(6-(2-(4-fluorophenyl)imidazo[1,2-a]pyridin-3-yl)imidazo[1,2-b]pyridazin-2-yl)-2-(pyridin-3-yl)thiazole-4-carboxamide]
17 | 32.1 | 17.1 | COc1ccc(-c2nc(C(=O)Nc3cn4nc(-c5c(-c6ccc(F)cc6)nc6ccccn56)ccc4n3)cs2)cc1 [Compound 189, N-(6-(2-(4-fluorophenyl)imidazo[1,2-a]pyridin-3-yl)imidazo[1,2-b]pyridazin-2-yl)-2-(4-methoxyphenyl) thiazole-4-carboxamide, 3 HCl]
18 | 6.05 | 4.77 | N#Cc1ccc(-c2nc(C(F)(F)F)c(C(=O)Nc3cn4nc(-c5c(-c6ccc(F)cc6)nc6ccccn56)ccc4n3)s2)cc1 [Compound 190, 2-(4-cyanophenyl)-N-(6-(2-(4-fluorophenyl)imidazo [1,2-a]pyridin-3-yl)imidazo [1,2-b]pyridazin-2-yl)-4-(trifluoromethyl)thiazole-5-carboxamide]
19 | 3.02 | 2.11 | O=C(Nc1cn2nc(-c3c(-c4ccc(F)cc4)nc4ccccn34)ccc2n1)c1ccccc1 [Compound 191, N-(6-(2-(4-fluorophenyl)imidazo[1,2-a]pyridin-3-yl)imidazo[1,2-b]pyridazin-2-yl)benzamide]
20 | 1.06 | 0.096 | CC(C)(C)C(=O)Nc1cc(C(=O)Nc2cn3nc(-c4c(-c5ccc(F)cc5)nc5ccccn45)ccc3n2)ccn1 [Compound 192, N-(6-(2-(4-fluorophenyl)imidazo[1,2-a]pyridin-3-yl)imidazo[1,2-b]pyridazin-2-yl)-2-pivalamidoisonicotinamide]
21 | 1.28 | 0.111 | CN(C)c1cc(C(=O)Nc2cn3nc(-c4c(-c5ccc(F)cc5)nc5ccccn45)ccc3n2)ccn1 [Compound 193, 2-(dimethylamino)-N-(6-(2-(4-fluorophenyl)imidazo[1,2-a]pyridin-3-yl)imidazo[1,2-b]pyridazin-2-yl) isonicotinamide]
22 | 13.8 | 0.715 | Nc1cc(C(=O)Nc2cn3nc(-c4c(-c5ccc(F)cc5)nc5ccccn45)ccc3n2)ccn1 [Compound 194, 2-amino-N-(6-(2-(4-fluorophenyl)imidazo[1,2-a]pyridin-3-yl)imidazo[1,2-b]pyridazin-2-yl) isonicotinamide]
